Reference: the supplement of paper PMC10307832

How the values were obtained:
Assay in all cases: relative viability (nuclei count vs DMSO), 5 days (fraction); higher = more cells survive
MK-8033 + Luminespib = compound: Cn1cc(-c2cnc3ccc4ccc(CS(=O)(=O)NCc5ccccn5)cc4c(=O)c3c2)cn1 [MK-8033] + CCNC(=O)c1noc(-c2cc(C(C)C)c(O)cc2O)c1-c1ccc(CN2CCOCC2)cc1 [Luminespib] (partner 0.01 µM)
Method in brief: (§1)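 Lung cancer cell lines, seeded in 1536-well plates, were treated the following day by pin tool with a single drug or with five library-drug doses (not always all listed) in √10 steps on top of a fixed anchor-drug dose. Cells were fixed and nuclei stained in one step after 5 days, and nuclei were counted. Relative viability is the nuclei count for treated wells divided by that for vehicle wells, reported as medians of duplicate plates.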

MK-8033 + Lapatinib = compound: Cn1cc(-c2cnc3ccc4ccc(CS(=O)(=O)NCc5ccccn5)cc4c(=O)c3c2)cn1 [MK-8033] + CS(=O)(=O)CCNCc1ccc(-c2ccc3ncnc(Nc4ccc(OCc5cccc(F)c5)c(Cl)c4)c3c2)o1 [Lapatinib] (partner 2 µM)
Method in brief: as §1

RU-SKI 43 + Dasatinib = compound: CC[C@@H](C)CNCC(=O)N1CCC2=C([C@@H]1COC3=CC=CC(=C3)C)C=CS2 [RU-SKI 43] + Cc1nc(Nc2ncc(C(=O)Nc3c(C)cccc3Cl)s2)cc(N2CCN(CCO)CC2)n1 [Dasatinib] (partner 0.075 µM)
Method in brief: as §1

Irinotecan + Pictilisib = compound: CCc1c2c(nc3ccc(OC(=O)N4CCC(N5CCCCC5)CC4)cc13)-c1cc3c(c(=O)n1C2)COC(=O)[C@]3(O)CC [Irinotecan] + CS(=O)(=O)N1CCN(Cc2cc3nc(-c4cccc5[nH]ncc45)nc(N4CCOCC4)c3s2)CC1 [Pictilisib] (partner 1 µM)
Method in brief: as §1

Cell Line | relative viability (MK-8033 + Luminespib; first compound 0.02 µM) | relative viability (MK-8033 + Luminespib; first compound 0.06325 µM) | relative viability (MK-8033 + Luminespib; first compound 0.2 µM) | relative viability (MK-8033 + Luminespib; first compound 0.6325 µM) | relative viability (MK-8033 + Luminespib; first compound 2 µM) | relative viability (MK-8033 + Lapatinib; first compound 0.02 µM) | relative viability (MK-8033 + Lapatinib; first compound 0.06325 µM) | relative viability (MK-8033 + Lapatinib; first compound 0.2 µM) | relative viability (MK-8033 + Lapatinib; first compound 0.6325 µM) | relative viability (MK-8033 + Lapatinib; first compound 2 µM) | relative viability (RU-SKI 43 + Dasatinib; first compound 0.1 µM) | relative viability (RU-SKI 43 + Dasatinib; first compound 0.3162 µM) | relative viability (RU-SKI 43 + Dasatinib; first compound 1 µM) | relative viability (RU-SKI 43 + Dasatinib; first compound 3.162 µM) | relative viability (RU-SKI 43 + Dasatinib; first compound 10 µM) | relative viability (Irinotecan + Pictilisib; first compound 0.6325 µM) | relative viability (Irinotecan + Pictilisib; first compound 2 µM) | relative viability (Irinotecan + Pictilisib; first compound 6.325 µM) | relative viability (Irinotecan + Pictilisib; first compound 20 µM)
NCI-H1792 | 0.383 | 0.34 | 0.442 | 0.217 | 0.273 | 1.06 | 0.87 | 0.863 | 0.917 | 0.976 | 0.772 | 1.03 | 0.739 | 0.892 | 0.845 | 0.281 | 0.199 | 0.106 | 0.11
NCI-H2087 | 0.119 | 0.174 | 0.148 | 0.242 | 0.148 | 0.991 | 1.11 | 1.11 | 0.859 | 0.98 | 0.998 | 1.48 | 0.866 | 0.938 | 0.943 | 0.311 | 0.288 | 0.233 | 0.264
EKVX | 0.888 | 0.905 | 0.814 | 0.889 | 0.842 | 0.193 | 0.195 | 0.216 | 0.207 | 0.255 | 0.457 | 0.413 | 0.524 | 0.57 | 0.618 | 0.503 | 0.421 | 0.224 | 0.163
NCI-H1355 | 0.695 | 0.686 | 0.607 | 0.74 | 0.646 | 0.979 | 0.865 | 0.865 | 0.988 | 0.909 | 0.674 | 0.868 | 0.781 | 0.761 | 0.739 | 0.201 | 0.407 | 0.202 | 0.238
NCI-H661 | 0.926 | 0.938 | 0.893 | 0.948 | 0.872 | 0.384 | 0.417 | 0.482 | 0.453 | 0.438 | 0.923 | 0.964 | 0.931 | 0.83 | 0.843 | 0.413 | 0.349 | 0.262 | 0.33
PC-3 [JPC-3] | 0.728 | 0.618 | 0.713 | 0.663 | 0.713 | 0.449 | – | 0.444 | 0.477 | 0.482 | 1.07 | 1.09 | 0.973 | 0.968 | 0.939 | 0.309 | 0.535 | 0.315 | 0.344
NCI-H2085 | 0.471 | 0.483 | 0.378 | 0.447 | 0.415 | 0.746 | 0.646 | 0.695 | 0.743 | 0.806 | 0.24 | 0.247 | 0.275 | 0.234 | 0.262 | 0.453 | 0.403 | 0.313 | 0.307
NCI-H1650 | 0.193 | 0.205 | 0.204 | 0.203 | 0.181 | 0.823 | 0.69 | 0.737 | 0.709 | 0.707 | 0.356 | 0.362 | 0.373 | 0.36 | 0.279 | 0.254 | 0.657 | 0.295 | 0.108
NCI-H1993 | 0.733 | 0.838 | 0.827 | 0.964 | 0.73 | 0.765 | 0.677 | 0.7 | 0.802 | 0.828 | 0.608 | 0.516 | 0.653 | 0.778 | 0.533 | 0.695 | 0.816 | 0.628 | 0.443
NCI-H2228 | 0.178 | 0.0977 | 0.163 | 0.161 | 0.208 | 1.34 | 1.08 | 0.848 | 1 | 0.98 | 0.74 | 0.658 | 0.486 | 0.555 | 0.425 | 0.408 | 0.562 | 0.399 | 0.395
LK-2 | 0.172 | – | 0.265 | 0.187 | 0.26 | 0.968 | 0.807 | 0.963 | 1.1 | 0.807 | 0.308 | 0.248 | 0.315 | 0.295 | 0.251 | 0.558 | 0.58 | 0.34 | 0.294
LC-2-ad | 1.04 | 0.97 | – | 1.08 | 0.878 | 1.09 | 0.915 | 0.877 | 1.11 | 0.806 | 0.587 | 0.634 | 0.77 | 0.605 | 0.552 | 0.146 | 0.315 | 0.231 | 0.116
NCI-H596 | 1.02 | 0.987 | 0.802 | 1.01 | 0.946 | 1.12 | 0.977 | 1.05 | 1.02 | 1.17 | 0.635 | 0.646 | 0.62 | 0.653 | 0.587 | 0.395 | 0.394 | 0.382 | 0.484
LCLC-97TM1 | 0.883 | 0.662 | 0.709 | 0.845 | 0.669 | 1.35 | 1.06 | 0.656 | 0.957 | 0.929 | 0.961 | 0.919 | 0.974 | 0.811 | 0.796 | 0.12 | 0.219 | 0.167 | 0.279
SK-LU-1 | 0.188 | 0.236 | 0.223 | 0.188 | 0.192 | 0.893 | 0.82 | 0.879 | 0.807 | 0.859 | 0.163 | 0.172 | 0.172 | 0.194 | 0.159 | 0.444 | 0.447 | 0.322 | 0.247
NCI-H1395 | 0.764 | 0.559 | 0.526 | 0.735 | 0.584 | 1.1 | 0.958 | 0.858 | 0.931 | 1.35 | 0.4 | 0.375 | 0.437 | 0.37 | 0.456 | – | 0.539 | 0.471 | 0.35
